In patent publication US20230181464A1, “COMPOSITIONS FOR DELIVERY OF BIOACTIVE AGENTS INTO HAIR FOLLICLES” (FOLLICLE PHARMA LTD, priority 2020, published 2023):
Where two headings read alike, the source gives them in different places.

What was measured:
[1] = cited from earlier work
C57bl mice [2] = assay: Testosterone-induced alopecia model in mice, hair cover (Example 2); format: in vivo; conditions: oral, 100 uL once daily; testosterone-injected mice
[3] = tested on: DHT (dihydrotestosterone); assay: Skin DHT expression at Day 28 (Example 3); format: in vivo, mice
Procedure: (§1) Hair on the backs of C57bl mice were shaved with electric clippers and subsequent application of ‘hair removal cream’ (Veet, Oxy Reckit Benckiser, Chartes, France). Twenty-four hours following hair removal, mice received daily subcutaneous injections of Testosterone, 1 mg/mouse, at the neck region. Twenty-four hours after the first Testosterone injection mice started receiving treatment as per Table 6 below. Topical formulations were applied onto the entire shaved back skin. The hair cover was analyzed by ImagJ software.

C57bl mice [4] = assay: Testosterone-induced alopecia in mice, hair cover over 28 d (Example 3); format: in vivo; conditions: oral once daily
Procedure: as §1

[5] = Blood concentration of dutasteride at Day 28 (Example 3); format: in vivo; conditions: C57bl, mice, Oral, daily dose 5-10 ug/mouse, read-out: Blood conc (ng/ml) of dutasteride
[6] = Human, 0.5 mg PO, from the literature; cited from earlier work
[7] = drug substance listed in Table 16

In the case of `CCOC(=O)c1ccc(C#Cc2ccc3c(c2)C(C)(C)CCS3)nc1` [Tazarotene], the logP [1, 7] is given as “logP 5.6”.

For `O=C(Nc1c(Cl)cncc1Cl)c1ccc(OC(F)F)c(OCC2CC2)c1` [Roflumilast], the logP [1, 7] is given as “logP 4.47”.

For `CC(C)(C)NC(=O)[C@H]1CC[C@H]2[C@@H]3CC[C@H]4NC(=O)C=C[C@]4(C)[C@H]3CC[C@]12C` [Oral finasteride, finasteride], the “% hair cover at 21 days” value (C57bl mice [2]) was 20%.

For `CC(=O)Oc1c(C)c(C)c2c(c1C)CCC(C)(CCC[C@H](C)CCC[C@H](C)CCCC(C)C)O2` (some centres unmarked) [Tocopherol acetate], the logP [1, 7] is given as “acetate LogP 10.8”.

For `C1=C/COCc2cc(ccc2OCCN2CCCC2)Nc2nccc(n2)-c2cccc(c2)COC/1` [Pacritinib], the logP [1, 7] is listed as “logP 4.58”.

For `N#CC[C@H](C1CCCC1)n1cc(-c2ncnc3[nH]ccc23)cn1` [Ruxolitinib], the logP [1] is given as “Ruxolitinib logP, 2.48”.

With `C[C@]12C=CC(=O)N[C@@H]1CC[C@@H]1[C@@H]2CC[C@]2(C)[C@@H](C(=O)Nc3cc(C(F)(F)F)ccc3C(F)(F)F)CC[C@@H]12` [dutasteride] the “DHT expression in the skin (in words)” value ([3]; mice) was “did not exhibit reduced concentrations of DHT in the skin”, the “Mean DHT conc. (nmol/L)/group” value ([3]; skin, oral 5-10 ug/mouse x 1/d) was 22.91 nmol/L and the “Group Mean Hair cover (%)” value (C57bl mice [4]; Study Day 0) was 0.0%. The “Group Mean Hair cover (%)” value (C57bl mice [4]; Study Day 7) was 0.0%, the “Group Mean Hair cover (%)” value (C57bl mice [4]; Study Day 14) was 2.3% and the “Group Mean Hair cover (%)” value (C57bl mice [4]; Study Day 21) was 5.2%. For the same compound, the “Group Mean Hair cover (%)” value (C57bl mice [4]; Study Day 28) was 22.3%, the “% hair cover at 21 days” value (C57bl mice [2]) was 30% and the concentration at 28 day [5] was 39 ng/mL. The “Plasma Concentration of Dutasteride” value [6] was 23.60 ng/mL.

For `O=C(OOC(=O)c1ccccc1)c1ccccc1` [Benzoyl peroxide], the logP [1, 7] is listed as “LogP 2.75”.
